Structures can show the parent of a compound that is named as a salt.
What follows are compounds tested against FAK kinase (catalytic construct FAK(410-689)) (Homo sapiens (Human), UniProt Q05397) (assay: FAKcd kinase ELISA (inhibition of poly-glu-tyr phosphorylation by FAK(410-689))). Conditions: 50 μM final ATP.
Assay type: biochemical

Chain of FAK kinase (catalytic construct FAK(410-689)) (Q05397 410-689): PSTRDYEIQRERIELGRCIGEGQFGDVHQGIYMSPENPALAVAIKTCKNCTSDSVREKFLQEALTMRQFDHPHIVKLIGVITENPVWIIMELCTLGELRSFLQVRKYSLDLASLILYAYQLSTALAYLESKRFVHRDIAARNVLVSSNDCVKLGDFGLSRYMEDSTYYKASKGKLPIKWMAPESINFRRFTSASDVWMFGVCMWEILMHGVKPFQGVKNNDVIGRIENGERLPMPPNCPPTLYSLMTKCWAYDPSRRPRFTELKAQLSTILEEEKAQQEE

SMILES	IC50 [nM]
CN(c1ncccc1CNc1nc(Nc2cc(C(N)=O)ccc2F)ncc1C(F)(F)F)S(C)(=O)=O [Compound 375, 4-fluoro-3-({4-[({2-[methyl(methylsulfonyl)amino]pyridin-3-yl}methyl)amino]-5-(trifluoromethyl)pyrimidin-2-yl)amino)benzamide]	6.29
CN(c1cccnc1CNc1nc(Nc2ccccc2)ncc1C(F)(F)F)S(C)(=O)=O [Compound 76, N-[2-({[2-anilino-5-(trifluoromethyl)pyrimidin-4-yl]amino}methyl)pyridin-3-yl]-N-methylmethane-sulfonamide]	93
CN(c1ncccc1CNc1nc(Nc2cccc(C(=O)NC[C@H]3CCCO3)c2)ncc1C(F)(F)F)S(C)(=O)=O [Compound 117, 3-({4-[({2-[methyl(methylsulfonyl)amino]pyridin-3-yl}methyl)amino]-5-(trifluoromethyl)pyrimidin-2-yl}amino)-N-[(2R)-tetrahydrofuran-2-ylmethyl]benzamide]	1.47
CN(c1nccnc1CNc1nc(Nc2cc(C(N)=O)ccc2F)ncc1C(F)(F)F)S(C)(=O)=O [Compound 373, 4-fluoro-3-({4-[({3-[methyl(methylsulfonyl)amino]pyrazin-2-yl}methyl)amino]-5-(trifluoromethyl)pyrimidin-2-yl}amino)benzamide]	7.49
CN(c1ncccc1CNc1nc(Nc2ccc(F)c(C(N)=O)c2)ncc1C(F)(F)F)S(C)(=O)=O [Compound 380, 2-fluoro-5-({4-[{{2-[methyl(methylsulfonyl)amino]pyridin-3-yl}methyl)amino]-5-(trifluoromethyl)pyrimidin-2-yl}amino)benzamide]	1.6
C[C@@H]1COCCN1C(=O)c1cccc(Nc2ncc(C(F)(F)F)c(NCc3cccnc3N(C)S(C)(=O)=O)n2)c1 [Compound 207, N-methyl-N-{3-[({2-[(3-{[(3R)-3-methylmorpholin-4-yl]carbonyl}phenyl)amino]-5-(trifluoromethyl)pyrimidin-4-yl}amino)methyl]pyridin-2-yl}methanesulfonamide]	2.78
Cc1cnccc1Nc1ncc(C(F)(F)F)c(NCc2cccnc2N(C)S(C)(=O)=O)n1 [Compound 94, N-methyl-N-{3-[({2-[(3-methylpyridin-4-yl)amino]-5-(trifluoromethyl)pyrimidin-4-yl)amino)methyl]pyridin-2-yl]methanesulfonamide]	8.01
CN(c1ncccc1CNc1nc(Nc2ccc(C#N)nc2)ncc1C(F)(F)F)S(C)(=O)=O [Compound 292, N-{3-[({2-[(6-cyanopyridin-3-yl)amino]-5-(trifluoromethyl)pyrimidin-4-yl}amino)methyl]pyridin-2-yl}-N-methylmethane-sulfonamide]	23.3
CC(C)NC(=O)c1cccc(Nc2ncc(C(F)(F)F)c(NCc3cccnc3N(C)S(C)(=O)=O)n2)c1 [Compound 189, N-isopropyl-3-({4-[({2-[methyl(methylsulfonyl)amino]pyridin-3-yl}methyl)amino]-5-(trifluoromethyl)pyrimidin-2-yl}amino)benzamide]	4.3
CN(c1ncccc1CNc1nc(Nc2ccc(C(=O)N3CCCCC3)cc2)ncc1C(F)(F)F)S(C)(=O)=O [Compound 258, N-methyl-N-[3-({[2-{[4-(piperidin-1-ylcarbonyl)phenyl]amino}-5-(trifluoromethyl)pyrimidin-4-yl]amino}methyl)pyridin-2-yl]methanesulfonamide]	1.79
CN(c1ncccc1CNc1nc(Nc2cccc(C(=O)N3CC[C@@H](O)C3)c2)ncc1C(F)(F)F)S(C)(=O)=O [Compound 175, N-{3-[({2-[(3-{[(3R)-3-hydroxypyrrolidin-1-yl]carbonyl}phenyl)amino]-5-(trifluoromethyl)pyrimidin-4-yl}amino)methyl]pyridin-2-yl}-N-methyl-methanesulfonamide]	4.08
Cc1ncc(CNc2nc(Nc3cccc(C(N)=O)c3)ncc2C(F)(F)F)c(N(C)S(C)(=O)=O)n1 [Compound 296, 3-({4-[({2-methyl-4-[methyl(methylsulfonyl)amino]pyrimidin-5-yl}methyl)amino]-5-(trifluoromethyl)pyrimidin-2-yl}amino)benzamide]	3.89
CN(c1ncccc1CNc1nc(Nc2ccc(C3COC(C)(C)O3)cc2)ncc1C(F)(F)F)S(C)(=O)=O (centres unmarked) [Compound 410, N-[3-({[2-{[4-(2,2-dimethyl-1,3-dioxolan-4-yl)phenyl]amino}-5-(trifluoromethyl)pyrimidin-4-yl)amino}methyl)pyridin-2-yl]-N-methylmethane-sulfonamide]	1.19
CC(=O)NCC(=O)Nc1cccc(Nc2ncc(C(F)(F)F)c(NCc3cccc(N(C)S(C)(=O)=O)c3)n2)c1 [Compound 399, N-2-acetyl-N-(3-{[4-({3-[methyl(methylsulfonyl)amino]benzyl}amino)-5-(trifluoromethyl)pyrimidin-2-yl]amino}phenyl)glycinamide]	5.57
CN(c1ncccc1CNc1nc(Nc2cccc(C(=O)N3CCC3)c2)ncc1C(F)(F)F)S(C)(=O)=O [Compound 125, N-[3-({[2-{[3-(azetidin-1-ylcarbonyl)phenyl]amino}-5-(trifluoromethyl)pyrimldin-4-yl]amino}methyl)pyridin-2-yl]-N-methylmethanesulfon-amide]	1.27

Now those with a lower IC50, led by results:

IC50 [nM]	SMILES
0.777	COc1ccc(C(N)=O)cc1Nc1ncc(C(F)(F)F)c(NCc2cccnc2N(C)S(C)(=O)=O)n1 [Compound 304, 4-methoxy-3-({4-[({2-[methyl(methylsulfonyl)amino]pyridin-3-yl}methyl)amino]-5-(trifluoromethyl)pyrimidin-2-yl}amino)benzamide]
< 0.595	CN(c1ncccc1CNc1nc(Nc2ccc(C(N)=O)c(F)c2)ncc1C(F)(F)F)S(C)(=O)=O [Example 13, 2-fluoro-4-({4-[({2-[methyl(methylsulfonyl)amino]pyridin-3-yl}methyl)amino]-5-(trifluoromethyl)pyrimidin-2-yl}amino)benzamide formic acid salt]
0.6	CN(c1ncccc1CNc1nc(Nc2ccc(C#N)cc2)ncc1C(F)(F)F)S(C)(=O)=O [Compound 95, N-{3-[({2-[(4-cyanophenyl)amino]-5-(trifluoromethyl)pyrimidin-4-yl}amino)methyl]pyridin-2-yl}-N-methylmethane-sulfonamide]
< 0.595	CN(c1ncccc1CNc1nc(Nc2ccc(C(N)=O)cc2F)ncc1C(F)(F)F)S(C)(=O)=O [Example 14, 3-fluoro-4-({4-[({2-[methyl(methylsulfonyl)amino]pyridin-3-yl}methyl)amino]-5-(trifluoromethyl)pyrimidin-2-yl}amino)benzamide formic acid salt]
0.94	CN(c1ncccc1CNc1nc(Nc2ccc(CC(=O)O)cc2)ncc1C(F)(F)F)S(C)(=O)=O [Compound 105, [4-({4-[({2-[methyl(methylsulfonyl)amino]pyridin-3-yl}methyl)amino]-5-(trifluoromethyl)pyrimidin-2-yl}arnino)phenyl]acetic acid]
0.6	CN(c1ncccc1CNc1nc(Nc2ccc(C(=O)N3CCC3)cc2)ncc1C(F)(F)F)S(C)(=O)=O [Compound 253, N-[3-({[2-{[4-(azetidin-1 - ylcarbonyl)phenyl]amino}-5-(trifluoromethyl)pyrimidin-4-yl]amino}methyl)pyridin-2-yl]-N-methylmethane-sulfonarriide]
0.94	CN(c1ncccc1CNc1nc(Nc2cccc(C(=O)NC3CCOCC3)c2)ncc1C(F)(F)F)S(C)(=O)=O [Compound 121, 3-({4-[({2-[methyl(methylsulfonyl)amino]pyridin-3-yl}methyl)amino]-5-(trifluoromethyl)pyrimidin-2-yl}amino)-N-(tetrahydro-2H-pyran-4-yl)benzamide]
0.6	Cc1ccc(CNc2nc(Nc3ccccc3)ncc2C(F)(F)F)c(N(C)S(C)(=O)=O)c1 [Compound 65, N-[2-({[2-anilino-5-(trifluoromethyl)pyrimidin-4-yl]amino}methyl)-5-methylphenyl]-N-methylmethanesulfonamide]
< 0.595	CC(C)NCc1ccc(Nc2ncc(C(F)(F)F)c(NCc3cccnc3N(C)S(C)(=O)=O)n2)cc1 [Compound 384, N-[3-({[2-({4-[(isopropylamino)methyl]phenyl}amino)-5-(trifluoromethyl)pyrimidin-4-yl]amino}methyl)pyridin-2-yl]-N-methylmethane-sulfonamide]
0.6	CC(=O)NCC(=O)NCc1ccc(Nc2ncc(C(F)(F)F)c(NCc3cccnc3N(C)S(C)(=O)=O)n2)cc1 [Compound 215, N~2~-acetyl-N-[4-({4-[({2-[methyl(methylsulfonyl)amino]pyridin-3-yl}methyl)amino]-5-(trifluoromethyl)pyrimidin-2-yl}amino)benzyl]glycinamide]
0.914	CC(O)c1ccc(Nc2ncc(C(F)(F)F)c(NCc3ncccc3N(C)S(C)(=O)=O)n2)cc1 (centres unmarked) [Compound 329, N-[2-({[2-{[4-(1-hydroxyethyl)phenyl}amino}-5-(trifluoromethyl)pyrimidin-4-yl]amino}methyl)pyridin-3-yl)-N-methylmethane-sulfonamide]
1	Cc1ccc(CNc2nc(Nc3ccc(C(N)=O)cc3)ncc2C(F)(F)F)c(N(C)S(C)(=O)=O)n1 [Compound 21, 4-({4-[{{6-methyl-2-[methyl(methylsulfonyl)amino]pyridin-3-yl}methyl)amino]-5-(trifluoromethyl)pyrimidin-2-yl}amino)benzamide]
0.66	CNC(=O)c1ccc(Nc2ncc(C(F)(F)F)c(NCc3nccnc3N(C)S(C)(=O)=O)n2)cc1C [Compound 400, N,2-dimethyl-4-({4-[({3-[methyl(methylsulfonyl)amino]pyrazin-2-yl)methyl)amino]-5-(trifluoromethyl)pyrimidin-2-yl}amino)benzamide]
< 0.595	CNCc1ccc(Nc2ncc(C(F)(F)F)c(NCc3cccnc3N(C)S(C)(=O)=O)n2)cc1 [Compound 414, N-methyl-N-[3-({[2-({4-[(methylamino)methyl]phenyl}amino)-5-(trifluoromethyl)pyrimidin-4-yl]amino}methyl)pyridin-2-yl]methanesulfonamide]

— patent publication US10450297B2, “Sulfonyl amide derivatives for the treatment of abnormal cell growth” (Pfizer, Inc., priority 2007, dated 2019)
